Source: patent US7829589B2, “Sulfonamide compounds and uses thereof” (Elixir Pharmaceuticals, Inc., priority 2005, dated 2010)

What follows are molecules tested against GHS-R (Homo sapiens, UniProt Q92847) (assay: GHS-R antagonist activity (Ki) in a cell based assay).
Procedure: Cell-Based Activity Assays. For example, the ability of the compound to modulate accumulation of a second messenger signaling component downstream of GHS-R can be evaluated. For example, inositol phosphates (IP), as a result of Gq signaling in a mammalian cell, e.g., a Cos-7 cells. Other tissue culture cells, Xenopus oocytes, and primary cells can also be used.
Phosphatidylinositol turnover assay. One day after transfection COS-7 cells are incubated for 24 hours with 5 μCi of [^3H]-myo-inositol in 1 ml medium supplemented with 10% fetal calf serum, 2 mM glutamine and 0.01 mg/ml gentamicin per well. Cells are then washed twice in buffer, 20 mM HEPES, pH 7.4, supplemented with 140 mM NaCl, 5 mM KCl, 1 mM MgSO4, 1 mM CaCl2, 10 mM glucose, 0.05% (w/v) bovine serum; and incubated in 0.5 ml buffer supplemented with 10 mM LiCl at 37° C. for 30 min. For some assays, it is also useful to incubate the cells with adenosine deaminase ADA (200 U/mg, Boehringer Mannheim, Germany) for 30 min in a concentration of 1 U/ml.
After incubation with the compound of interest for 45 min at 37° C., cells are extracted with 10% ice-cold perchloric acid and placed on ice for 30 min. The resulting supernatants are neutralized with KOH in HEPES buffer, and [^3H]-inositol phosphate is purified on Bio-Rad AG 1-X8 anion exchange resin as described. Assays can be run in duplicate, triplicate, etc. […]

Chain of GHS-R (Q92847 whole entry, species assumed): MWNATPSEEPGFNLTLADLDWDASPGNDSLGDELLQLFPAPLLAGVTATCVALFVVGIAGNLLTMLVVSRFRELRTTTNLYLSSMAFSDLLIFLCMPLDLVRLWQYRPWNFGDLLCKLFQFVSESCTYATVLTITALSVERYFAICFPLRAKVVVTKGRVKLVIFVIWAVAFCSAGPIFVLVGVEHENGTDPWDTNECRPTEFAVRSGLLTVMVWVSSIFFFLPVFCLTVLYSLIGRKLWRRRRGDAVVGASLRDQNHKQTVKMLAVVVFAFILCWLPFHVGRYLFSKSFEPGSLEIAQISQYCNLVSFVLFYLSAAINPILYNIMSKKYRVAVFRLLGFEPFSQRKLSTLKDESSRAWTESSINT

Molecule | Ki [nM]
3-Diethylamino-propane-1-sulfonic acid {(R)-1-[3-(5-bromo-pyridin-3-yl)-[1,2,4]oxadiazol-5-yl]-phenyl-propyl}-amide [Compound 103] | 100 to 500
CCN(CC)CCCS(=O)(=O)N[C@H](COCc1ccccc1)c1nc(-c2ccccc2)no1 [Compound 1, 3-Diethylamino-propane-1-sulfonic acid [(R)-2-benzyloxy-1-(3-phenyl-[1,2,4]oxadiazol-5-yl)-ethyl]-amide] | 500 to 1000
CCN(CC)CCCS(=O)(=O)N[C@H](COCc1ccccc1)c1nc(-c2c(Cl)cccc2Cl)no1 [Compound 2, 3-Diethylamino-propane-1-sulfonic acid {(R)-2-benzyloxy-1-[3-(2,6-dichloro-phenyl)-[1,2,4]oxadiazol-5-yl]-ethyl}-amide] | < 100
CCN(CC)CCCS(=O)(=O)N[C@H](CCc1ccccc1)c1nc(-c2cccc(Cl)c2Cl)n[nH]1 [Compound 3, 3-Diethylamino-propane-1-sulfonic acid {(R)-1-[5-(2,3-dichloro-phenyl)-2H-[1,2,4]triazol-3-yl]-3-phenyl-propyl}-amide] | < 100
CCN(CC)CCCS(=O)(=O)N[C@H](CCc1ccccc1)c1nc(-c2ccccc2C)no1 [Compound 4, 3-Diethylamino-propane-1-sulfonic acid [(R)-3-phenyl-1-(3-o-tolyl-[1,2,4]oxadiazol-5-yl)-propyl]-amide] | < 100
CCN(CC)CCCS(=O)(=O)N[C@H](CCc1ccccc1)c1nc(Cc2ccc(F)cc2)n[nH]1 [Compound 5, 3-Diethylamino-propane-1-sulfonic acid {(R)-1-[5-(4-fluoro-benzyl)-2H-[1,2,4]triazol-3-yl]-3-phenyl-propyl}-amide] | < 100
CCN(CC)CCCS(=O)(=O)N[C@H](CCc1ccccc1)c1nc(-c2ccccc2)no1 [Compound 6, 3-Diethylamino-propane-1-sulfonic acid [(R)-3-phenyl-1-(3-phenyl-[1,2,4]oxadiazol-5-yl)-propyl]-amide] | < 100
CCN(CC)CCCS(=O)(=O)N[C@H](CCc1ccccc1)c1nc(-c2ccsc2)n[nH]1 [Compound 7, 3-Diethylamino-propane-1 sulfonic acid [(R)-3-phenyl-1-(5-thiophen-3-yl-2H-[1,2,4]triazol-3-yl)-propyl]-amide] | < 100
CCN(CC)CCCS(=O)(=O)N[C@H](CCc1ccccc1)c1nc(-c2c(F)cc(F)cc2F)n[nH]1 [Compound 8, 3-Diethylamino-propane-1-sulfonic acid {(R)-3-phenyl-1-[5-(2,4,6-trifluoro-phenyl)-2H-[1,2,4]triazol-3-yl]-propyl}-amide] | < 100
CCN(CC)CCCS(=O)(=O)N[C@H](CCc1ccccc1)c1nc(-c2ncccc2C)no1 [Compound 9, 3-Diethylamino-propane-1-sulfonic acid {(R)-1-[3-(3-methyl-pyridin-2-yl)-[1,2,4]oxadiazol-5-yl]-3-phenyl-propyl}-amide] | 100 to 500
CCN(CC)CCCS(=O)(=O)N[C@H](CCc1ccccc1)c1nc(-c2c(C)cccc2Cl)no1 [Compound 10, 3-Diethylamino-propane-1-sulfonic acid {(R)-1-[3-(2-chloro-6-methyl-phenyl)-[1,2,4]oxadiazol-5-yl]-3-phenyl-propyl}-amide] | 100 to 500
CCN(CC)CCCS(=O)(=O)N[C@H](CCc1ccccc1)c1nc(-c2ccc3c(c2)OCO3)n[nH]1 [Compound 11, 3-Diethylamino-propane-1-sulfonic acid [(R)-1-(5-benzo[1,3]dioxol-5-yl-2H-[1,2,4]triazol-3-yl)-3-phenyl-propyl]-amide] | < 100
CCN(CC)CCCS(=O)(=O)N[C@H](CCc1ccccc1)c1nc(-c2c(Cl)cccc2Cl)no1 [Compound 12, 3-Diethylamino-propane-1-sulfonic acid {(R)-1-[3-(2,6-dichloro-phenyl)-[1,2,4]oxadiazol-5-yl]-3-phenyl-propyl}-amide] | < 100
CCN(CC)CCS(=O)(=O)N[C@H](CCc1ccccc1)c1nc(-c2ccccc2C)no1 [Compound 13, 2-Diethylamino-ethanesulfonic acid [(R)-3-phenyl-1-(3-o-tolyl-[1,2,4]oxadiazol-5-yl)-propyl]-amide] | 500 to 1000
CCN(CC)CCS(=O)(=O)N[C@H](CCc1ccccc1)c1nc(-c2ncccc2C)no1 [Compound 14, 2-Diethylamino-ethanesulfonic acid {(R)-1-[3-(3-methyl-pyridin-2-yl)-[1,2,4]oxadiazol-5-yl]-3-phenyl-propyl}-amide] | 100 to 500
CCN(CC)CCCS(=O)(=O)N[C@H](CCc1ccccc1)c1nc(-c2cccc(F)c2)n[nH]1 [Compound 15, 3-Diethylamino-propane-1-sulfonic acid {(R)-1-[5-(3-fluoro-phenyl)-2H-[1,2,4]triazol-3-yl]-3-phenyl-propyl}-amide] | < 100
CCN(CC)CCCS(=O)(=O)N[C@H](CCc1ccccc1)c1nc(-c2ccccc2OC)no1 [Compound 16, 3-Diethylamino-propane-1-sulfonic acid {(R)-1-[3-(2-methoxy-phenyl)-[1,2,4]oxadiazol-5-yl]-3-phenyl-propyl}-amide] | 500 to 1000
CCN(CC)CCS(=O)(=O)N[C@H](CCc1ccccc1)c1nc(-c2ccccc2)no1 [Compound 17, 2-Diethylamino-ethanesulfonic acid [(R)-3-phenyl-1-(3-phenyl-[1,2,4]oxadiazol-5-yl)-propyl]-amide] | 100 to 500
CCN(CC)CCS(=O)(=O)N[C@H](CCc1ccccc1)c1nc(-c2c(Cl)cccc2Cl)no1 [Compound 18, 2-Diethylamino-ethanesulfonic acid {(R)-1-[3-(2,6-dichloro-phenyl)-[1,2,4]oxadiazol-5-yl]-3-phenyl-propyl}-amide] | 100 to 500
CCN(CC)CCS(=O)(=O)N[C@H](CCc1ccccc1)c1nc(-c2ccccc2OC)no1 [Compound 19, 2-Diethylamino-ethanesulfonic acid {(R)-1-[3-(2-methoxy-phenyl)-[1,2,4]oxadiazol-5-yl]-3-phenyl-propyl}-amide] | ≥ 1000
CCN(CC)CCCS(=O)(=O)N[C@H](CCc1ccccc1)c1nc(-c2ccc3[nH]ccc3c2)n[nH]1 [Compound 20, 3-Diethylamino-propane-1-sulfonic acid {(R)-1-[5-(1H-indol-5-yl)-2H-{1,2,4]triazol-3-yl]-3-phenyl-propyl}-amide] | < 100
CCN(CC)CCCS(=O)(=O)N[C@@H](CCc1ccccc1)c1nc(-c2ccccc2C)no1 [Compound 21, 3-Diethylamino-propane-1-sulfonic acid [(S)-3-phenyl-1-(3-o-tolyl-[1,2,4]oxadiazol-5-yl)-propyl]-amide] | 100 to 500
CCN(CC)CCCS(=O)(=O)N[C@H](CCc1ccccc1)c1nc(-c2ccc(Cl)cc2)n[nH]1 [Compound 22, 3-Diethylamino-propane-1-sulfonic acid {(R)-1-[5-(4-chloro-phenyl)-2H-[1,2,4]triazol-3-yl]-3-phenyl-propyl}-amide] | < 100
CCN(CC)CCCS(=O)(=O)N[C@H](CCc1ccccc1)c1nc(-c2ccccc2)n[nH]1 [Compound 23, 3-Diethylamino-propane-1-sulfonic acid [(R)-3-phenyl-1-(5-phenyl-2H-[1,2,4]triazol-3-yl)-propyl]-amide] | < 100
